Data on 21 molecules can be found in patent US20250163057A1, “DCN-1 MODULATING COMPOUNDS AND METHODS OF USE THEREOF” (Cellarity, Inc., priority 2023, published 2025).

Like-named read-outs stand apart in the source and are kept apart here.

Assay [1] deals with Cullin-3 (CUL3) neddylation. The assay can be described thus: AlphaLISA assay for Cullin-3 (CUL3) neddylation in TF 1 cells. The format is cell-based. The following applies: 3 hours treatment. Summed up:
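Neddylated CUL3 was quantified by AlphaLISA in lysates of TF 1 cells exposed for 3 h to test compound in IMDM without supplements. Percent inhibition set between vehicle and 1 μM DI-1548 positive control; IC50 derived by Hill-equation fitting of dose-response curves.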

The target in assay [2] is DCN1 (DCUND1) protein PONY domain (Homo sapiens (Human), UniProt Q96GG9). The assay can be described thus: TR-FRET assay, DCN1 binding with FAM-labeled probe. Summed up: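 Biotinylated DCN1 PONY domain, labeled with streptavidin-Tb, was competed against a FAM-labeled non-covalent DCN1 inhibitor probe in buffer with TritonX and 200 mM NaCl. Conditions were 5 nM DCN1 with 20 nM FAM-probe, or 0.31 nM DCN1 with 100 nM FAM-plus 800 nM unlabeled probe. The TR-FRET ratio was read at 1, 5 and 24 h (0.1% DMSO).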
DCN1 (DCUND1) protein PONY domain, sequence (Q96GG9 60-248): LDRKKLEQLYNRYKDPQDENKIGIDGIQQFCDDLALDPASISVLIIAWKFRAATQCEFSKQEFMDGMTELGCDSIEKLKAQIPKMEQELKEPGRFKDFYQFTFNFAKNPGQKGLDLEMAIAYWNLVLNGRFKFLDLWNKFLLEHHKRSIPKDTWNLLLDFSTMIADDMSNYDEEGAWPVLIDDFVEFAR

The target of another assay is DCN1 protein (Homo sapiens (Human), UniProt Q96GG9). The assay can be described thus: Intact Protein MS Analysis with the RapidFire-TOF System (covalent adduct formation). The note with it: MS Emax; 400 nM DCN1, 3 hours at room temperature. In kind it is binding. Summed up:
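Tag-cleaved human DCN1 (400 nM) expressed in E. coli, in 25 mM Tris-HCl, 200 mM NaCl, 1 mM DTT, was incubated with 11 compound concentrations for 3 h at room temperature and quenched with 0.2% formic acid. Intact-protein Q-TOF MS with deconvolution detected the compound adduct mass.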

The mark [3] stands for this setting: 24 hr after treatment with compound, read-out: TR FRET IC50 24 hr.
Where [4] appears, read: read-out: TR FRET IC50 1 hr, 1 hr after treatment with compound.
[5] abbreviates: TR FRET IC50 1 hr (nM), 1 hr after treatment with compound.

DCN1 protein, sequence (Q96GG9 whole entry): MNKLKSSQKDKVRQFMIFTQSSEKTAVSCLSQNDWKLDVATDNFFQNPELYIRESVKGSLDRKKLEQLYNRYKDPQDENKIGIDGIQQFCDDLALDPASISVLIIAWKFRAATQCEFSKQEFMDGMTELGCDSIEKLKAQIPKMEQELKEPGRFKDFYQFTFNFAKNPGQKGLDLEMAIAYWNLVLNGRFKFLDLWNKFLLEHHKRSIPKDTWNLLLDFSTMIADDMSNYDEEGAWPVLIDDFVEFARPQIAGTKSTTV

For `CCN(CC#N)C(=O)c1nn(-c2ccccc2)c2c1[C@H](c1ccc(F)cc1)[C@H](NC(=O)c1cccc(C(F)(F)F)c1)C(=O)N2CC` (stereo in doubt) [Compound I-283], the IC50 in assay [1] (Homo sapiens, TF-1, 3 h) is at most 0.1 µM; in assay [2] (setting [3]), at most 200 nM; in assay [2] (setting [4]), at most 200 nM. Moreover, the “% Adduct Formation” value on DCN1 protein is “+++ (MS Emax % adduct formation greater than 80.0 and less than or equal to 100.0)”.

Take `CCN1C(=O)[C@@H](NC(=O)c2cccc(C(F)(F)F)n2)[C@@H](c2ccc(F)cc2)c2c(C(=O)N3CCC[C@H]3C#N)nn(C3CCOCC3)c21` [Compound I-332]: the IC50 was at most 0.1 µM in assay [1] (Homo sapiens, TF-1, 3 h); at most 200 nM in assay [2] (setting [3]); 200 to 1000 nM in assay [2] (setting [5]). Also, on DCN1 protein, the “% Adduct Formation” value was “+++ (MS Emax % adduct formation greater than 80.0 and less than or equal to 100.0)”.

`CCN1C(=O)[C@@H](NC(=O)c2cccc(C(F)(F)F)c2)[C@@H](c2ccc(F)cc2)c2c(C(=O)N(CC#N)C3CC3)nn(-c3ccccc3)c21` (stereo in doubt) [Compound I-284]: the IC50 in assay [1] (Homo sapiens, TF-1, 3 h) was at most 0.1 µM; in assay [2] (setting [3]) it was at most 200 nM; in assay [2] (setting [4]), at most 200 nM. Further, on DCN1 protein, the “% Adduct Formation” value was “+++ (MS Emax % adduct formation greater than 80.0 and less than or equal to 100.0)”.

For `C=C(CN1CCOCC1)C(=O)NCc1nn(-c2ccccc2)c2c1[C@H](c1ccc(F)cc1)[C@H](NC(=O)c1cccc(C(F)(F)F)c1)C(=O)N2CC` (racemic) [Compound I-67], the IC50 in assay [1] (Homo sapiens, TF-1, 3 h) was 0.1 to 1 µM; in assay [2] (setting [3]), at most 200 nM; in assay [2] (setting [4]), at most 200 nM. In addition, at DCN1 protein, the “% Adduct Formation” value was “+ (MS Emax % adduct formation greater than or equal to 0.0 and less than or equal to 30.0)”.

With `CCN1C(=O)[C@@H](NC(=O)c2cccc(C(F)(F)F)c2)[C@@H](c2ccc(F)cc2)c2c(C(=O)N(C)[C@H](C#N)CCN3CC4CC(C3)O4)nn(-c3ccccc3)c21` [Compound I-312], the concentration for half-maximal inhibition (IC50) is at most 0.1 µM in assay [1] (Homo sapiens, TF-1, 3 h); at most 200 nM in assay [2] (setting [3]); at most 200 nM in assay [2] (setting [4]). Moreover, the “% Adduct Formation” value on DCN1 protein was “+++ (MS Emax % adduct formation greater than 80.0 and less than or equal to 100.0)”.

For `CCN1C(=O)[C@@H](NC(=O)c2cccc(C(F)(F)F)c2)[C@@H](c2ccc(F)cc2)c2c(C(=O)N(C)CC#N)nn(-c3ccccc3)c21` (racemic) [Compound I-282], the figures for the half-maximal inhibitory concentration (IC50) in assay [1], in assay [2] (setting [3]) and in assay [2] (setting [4]) were at most 0.1 µM, at most 200 nM and at most 200 nM, respectively. Further, on DCN1 protein, the “% Adduct Formation” value was “+++ (MS Emax % adduct formation greater than 80.0 and less than or equal to 100.0)”.

With `CCN1C(=O)[C@@H](NC(=O)c2cccc(C(F)(F)F)c2)[C@@H](c2ccc(F)cc2)c2c(C(=O)N3CCC[C@H]3C#N)nn(-c3cccc(OCCCN4CCC5(CC4)COC5)c3)c21` [Compound I-336], the IC50 in assay [1] (Homo sapiens, TF-1, 3 h) was at most 0.1 µM; in assay [2] (setting [3]), at most 200 nM; in assay [2] (setting [4]), at most 200 nM. The “% Adduct Formation” value at DCN1 protein is “+++ (MS Emax % adduct formation greater than 80.0 and less than or equal to 100.0)”.

Turning to `CCN1C(=O)[C@@H](NC(=O)c2cccc(C(F)(F)F)c2)[C@@H](c2ccc(F)cc2)c2c(C(=O)N(C)[C@@H](C#N)CCN3CCN(C4COC4)CC3)nn(-c3ccccc3)c21` [Compound I-317], the IC50 is at most 0.1 µM in assay [1] (Homo sapiens, TF-1, 3 h); at most 200 nM in assay [2] (setting [3]); at most 200 nM in assay [2] (setting [4]). On DCN1 protein, the “% Adduct Formation” value was “+++ (MS Emax % adduct formation greater than 80.0 and less than or equal to 100.0)”.

As to `CCN1C(=O)[C@@H](NC(=O)c2cccc(SC(F)(F)F)c2)[C@@H](C2CC2)c2c(C(=O)N3[C@H](C#N)C[C@H]4C[C@H]43)nn(C3CCOCC3)c21` [Compound I-389], the IC50 in assay [1] (Homo sapiens) was at most 0.1 µM; in assay [2] (setting [3]), at most 200 nM; in assay [2] (setting [4]), at most 200 nM. The “% Adduct Formation” value at DCN1 protein was “+++ (MS Emax % adduct formation greater than 80.0 and less than or equal to 100.0)”.

For `C=C(CN1CC2(COC2)C1)C(=O)NCc1nn(-c2ccccc2)c2c1[C@H](c1ccc(F)cc1)[C@@H](NC(=O)c1cccc(C(F)(F)F)c1)C(=O)N2CC` [Compound I-149], the IC50 is at most 0.1 µM in assay [1] (Homo sapiens, TF-1, 3 h); at most 200 nM in assay [2] (setting [3]); at most 200 nM in assay [2] (setting [4]). Besides, at DCN1 protein, the “% Adduct Formation” value was “+++ (MS Emax % adduct formation greater than 80.0 and less than or equal to 100.0)”.

Regarding `CCN1C(=O)[C@@H](NC(=O)c2cccc(C(F)(F)F)c2F)[C@@H](c2ccc(F)cc2)c2c(C(=O)N3CCC[C@H]3C#N)nn(C3CCOCC3)c21` [Compound I-333], the IC50 is at most 0.1 µM in assay [1] (Homo sapiens, TF-1, 3 h); at most 200 nM in assay [2] (setting [3]); 200 to 1000 nM in assay [2] (setting [5]). For the same molecule, the “% Adduct Formation” value on DCN1 protein was “+++ (MS Emax % adduct formation greater than 80.0 and less than or equal to 100.0)”.

Turning to `CCN1C(=O)[C@@H](NC(=O)c2cccc(C(F)(F)F)c2)[C@@H](C2CCC2)c2c(C(=O)N(C)C(C)C#N)nn(C3CCOCC3)c21` (stereo partly drawn) [Compound I-375], the IC50 was at most 0.1 µM in assay [1] (Homo sapiens, TF-1, 3 h); at most 200 nM in assay [2] (setting [3]); at most 200 nM in assay [2] (setting [4]). Besides, the “% Adduct Formation” value on DCN1 protein was “+++ (MS Emax % adduct formation greater than 80.0 and less than or equal to 100.0)”.

As to `CCN1C(=O)[C@@H](NC(=O)c2cccc(C(F)(F)F)c2)[C@@H](c2ccc(F)cc2)c2c(C(=O)N(CC#N)CCN3CCN(C4COC4)CC3)nn(-c3ccccc3)c21` [Compound I-323], the IC50 in assay [1] (Homo sapiens, TF-1, 3 h) is at most 0.1 µM; in assay [2] (setting [3]) it was at most 200 nM; in assay [2] (setting [4]) it was at most 200 nM. Also, the “% Adduct Formation” value at DCN1 protein was “+++ (MS Emax % adduct formation greater than 80.0 and less than or equal to 100.0)”.

In the case of `CCN1C(=O)[C@@H](NC(=O)c2cccc(C(F)(F)F)c2)[C@@H](c2ccc(F)cc2)c2c(C(=O)N(CC#N)CCC(=O)OC)nn(-c3ccccc3)c21` (stereo in doubt) [Compound I-288], the IC50 in assay [1] (Homo sapiens, TF-1, 3 h) was at most 0.1 µM; in assay [2] (setting [3]), at most 200 nM; in assay [2] (setting [4]), at most 200 nM. The “% Adduct Formation” value at DCN1 protein is “+++ (MS Emax % adduct formation greater than 80.0 and less than or equal to 100.0)”.

As to `CCN1C(=O)[C@@H](NC(=O)c2cccc(C(F)(F)F)c2)[C@@H](c2ccc(F)cc2)c2c(C(=O)N(CC#N)CCN(C)C)nn(C3CCOCC3)c21` [Compound I-352], the IC50 in assay [1] (Homo sapiens, TF-1, 3 h) is at most 0.1 µM; in assay [2] (setting [3]) it was at most 200 nM; in assay [2] (setting [4]), at most 200 nM. For the same molecule, the “% Adduct Formation” value on DCN1 protein was “+++ (MS Emax % adduct formation greater than 80.0 and less than or equal to 100.0)”.

With `C=C(C)C(=O)N[C@@H](C)c1nn(-c2ccccc2)c2c1[C@H](c1ccc(F)cc1)[C@H](NC(=O)c1cccc(C(F)(F)F)c1)C(=O)N2CC` (mixture of isomers) [Compound I-16], the values for the IC50 in assay [2] (setting [3]) and in assay [2] (setting [5]) were 1000 to 3000 nM and 200 to 1000 nM, respectively. The “% Adduct Formation” value on DCN1 protein was “+ (MS Emax % adduct formation greater than or equal to 0.0 and less than or equal to 30.0)”.

As for `CC#CC(=O)N(C)Cc1nn(-c2ccccc2)c2c1[C@H](c1ccc(F)cc1)[C@H](NC(=O)c1cccc(C(F)(F)F)c1)C(=O)N2CC` (racemic) [Compound I-90], the IC50 in assay [2] (setting [3]) and in assay [2] (setting [4]) was above 3000 nM throughout. In addition, on DCN1 protein, the “% Adduct Formation” value was “+ (MS Emax % adduct formation greater than or equal to 0.0 and less than or equal to 30.0)”.

As to `C=C(C)C(=O)N(C)Cc1nn(-c2ccccc2)c2c1[C@H](c1ccc(F)cc1)[C@H](NC(=O)c1cccc(C(F)(F)F)c1)C(=O)N2CC` (racemic) [Compound I-156], the IC50 in assay [2] (setting [3]) and in assay [2] (setting [5]) was 200 to 1000 nM throughout. Besides, on DCN1 protein, the “% Adduct Formation” value is “+ (MS Emax % adduct formation greater than or equal to 0.0 and less than or equal to 30.0)”.

Take `CCN1C(=O)[C@@H](NC(=O)c2cccc(C(F)(F)F)c2)[C@@H](c2ccc(F)cc2)c2c(C#N)nn(-c3ccccc3)c21` (racemic) [Compound I-115, rac-N-((4R,5R)-3-cyano-7-ethyl-4-(4-fluorophenyl)-6-oxo-1-phenyl-4,5,6,7-tetrahydro-1H-pyrazolo[3,4-b]pyridine-5-yl)-3-(trifluoromethyl)benzamide]: the IC50 in assay [2] (setting [3]) and in assay [2] (setting [5]) was above 3000 nM throughout. On DCN1 protein, the “% Adduct Formation” value was “+ (MS Emax % adduct formation greater than or equal to 0.0 and less than or equal to 30.0)”.

As for `C/C=C/C(=O)N[C@@H](C)c1nn(-c2ccccc2)c2c1[C@H](c1ccc(F)cc1)[C@H](NC(=O)c1cccc(C(F)(F)F)c1)C(=O)N2CC` (mixture of isomers) [Compound I-23], the concentration for half-maximal inhibition (IC50) in assay [2] (setting [3]) and in assay [2] (setting [5]) was 1000 to 3000 nM in each case. Also, on DCN1 protein, the “% Adduct Formation” value was “+ (MS Emax % adduct formation greater than or equal to 0.0 and less than or equal to 30.0)”.

With `CCN1C(=O)[C@@H](NC(=O)c2cccc(C(F)(F)F)c2)[C@@H](c2ccc(F)cc2)c2c(C/C=C/C(=O)O)nn(-c3ccccc3)c21` (racemic) [Compound I-83, rac-(E)-4-((4R,5R)-7-ethyl-4-(4-fluorophenyl)-6-oxo-1-phenyl-5-(3-(trifluoromethyl)benzamido)-4,5,6,7-tetrahydro-1H-pyrazolo[3,4-b]pyridin-3-yl)but-2-enoic acid], the IC50 in assay [2] (setting [3]) and in assay [2] (setting [5]) was 1000 to 3000 nM in each case. Besides, the “% Adduct Formation” value on DCN1 protein is “+ (MS Emax % adduct formation greater than or equal to 0.0 and less than or equal to 30.0)”.
